These results are taken from patent US20240279236A1, “COMPOUNDS AND METHODS OF TREATING TUBERCULOSIS” (Fimbrion Therapeutics, Inc., priority 2021, published 2024).

pIC50: −log10 of the molar value.

The test system of the assay is WT Mtb Erdman strain. Description: Microplate Alamar Blue Assay (MABA), Mtb growth inhibition. It is filed as cell-based, Mycobacterium tuberculosis. Particulars: Mycobacterium tuberculosis, ERDMAN, 168 h, Middlebrook 7H9 media, 7 days at 37° C. in 5% CO2. On the technique in general: The colour change of resazurin is a common sign of viable cells or microbes.
Consider `Cc1cc2c(NCCCc3ccc(-c4cnc(C5CC5)cn4)cc3)nc(-c3ccoc3)nc2s1` [Example 378, N-(3-[4-(5-cyclopropyl-pyrazin-2-yl)phenyl]propyl)-2-(furan-3-yl)-6-methylthieno[2,3-d]pyrimidin-4-amine], for which the pIC50 (commonly −log10 of the IC50, conventionally taken in molar units) is 7.20.

Regarding `Cc1cc2c(NCCCc3ccc(-c4ccc[nH]4)cc3)nc(-c3ccoc3)nc2s1` [Example 594, 2-(furan-3-yl)-6-methyl-N-(3-[4-(1H-pyrrol-2-yl)phenyl]propyl)thieno[2,3-d]pyrimidin-4-amine], the pIC50 was 6.62. This pIC50 lies 0.58 log units lower than the previous one.

In turn, `Cc1cc2c(NCCCc3ccc(-c4cnc(C(F)(F)F)nc4)cc3)nc(-c3ccoc3)nc2s1` [Example 386] showed a negative-log IC50 (pIC50) of 6.66. The pIC50 values of the last two molecules are within 0.2 log units of each other.

`Cc1cc2c(N[C@@H]3C[C@H]3c3ccc(F)c(F)c3)nc(-c3ncccn3)nc2s1` [Example 41, N-((1R,2S)-2-(3,4-difluorophenyl)cyclopropyl)-6-methyl-2-(pyrimidin-2-yl)thieno[2,3-d]pyrimidin-4-amine]: the pIC50 was < 5.00.

In the case of `Cc1cc2c(NCCCc3ccc(-c4ncc(F)cn4)cc3)nc(-c3ccoc3)nc2s1` [Example 402, N-(3-[4-(5-fluoropyrimidin-2-yl)phenyl]propyl)-2-(furan-3-yl)-6-methylthieno[2,3-d]pyrimidin-4-amine], the negative logarithm of the IC50 (pIC50) was 8.10.

For the molecule `Cc1cc2c(NCCCc3ccc(-c4ccc(OC(F)(F)F)cc4)cc3)nc(N3CCC(F)(F)C3)nc2s1` [Example 534, 2-(3,3-difluoropyrrolidin-1-yl)-6-methyl-N-(3-(4′-(trifluoromethoxy)-[1,1′-biphenyl]-4-yl)propyl)thieno[2,3-d]pyrimidin-4-amine], the pIC50 is 7.07.

On to `Cc1cc2c(N[C@@H]3C[C@H]3c3ccc(F)c(F)c3)nc(-c3cccc(N(C)C)c3)nc2s1` [Example 501, N-((1R,2S)-2-(3,4-difluorophenyl)cyclopropyl)-2-(3-(dimethylamino)phenyl)-6-methylthieno[2,3-d]pyrimidin-4-amine], for which the pIC50 is < 5.00.

The molecule `Cc1cc2c(NCCCc3ccc(-c4cnc(C(=O)N(C)C)cn4)cc3)nc(-c3ccoc3)nc2s1` [Example 401, 5-[4-(3-([2-(furan-3-yl)-6-methylthieno[2,3-d]pyrimidin-4-yl]amino)propyl)phenyl]-N,N-dimethylpyrazine-2-carboxamide] gave a pIC50 of 5.66.

Molecule `CCc1nc(NCCCc2ccc(Br)cc2)c2cc(C)sc2n1` [Example 199, N-(3-(4-bromophenyl)propyl)-2-ethyl-6-methylthieno[2,3-d]pyrimidin-4-amine] showed a pIC50 of 6.92.

`C=Cc1nc(NCCCc2ccc(-c3ccc(OC(F)(F)F)cc3)cc2)c2cc(C)sc2n1` [Example 502, 2-ethenyl-6-methyl-N-(3-[4′-(trifluoromethoxy)-[1,1′-biphenyl]-4-yl]propyl)thieno[2,3-d]pyrimidin-4-amine] gave a negative-log IC50 (pIC50) of 8.22.

Take `CCc1nc(NCCOc2ccc(OC)cc2)c2cc(C)sc2n1` [Example 40, 2-ethyl-N-(2-(4-methoxyphenoxy)ethyl)-6-methylthieno[2,3-d]pyrimidin-4-amine]: the negative-log IC50 (pIC50) was 5.44.

For `COC(=O)c1nc(NCCCc2ccc(OC(F)(F)F)cc2)c2cc(C)sc2n1` [Example 117, methyl 6-methyl-4-((3-(4-(trifluoromethoxy)phenyl)propyl)amino) thieno[2,3-d]pyrimidine-2-carboxylate], the pIC50 was < 5.11.

Molecule `CCc1nc(NCCOc2ccc(Br)cc2)c2cc(C)sc2n1` [Example 65, N-(2-(4-bromophenoxy)ethyl)-2-ethyl-6-methylthieno[2,3-d]pyrimidin-4-amine] gave a pIC50 of 5.55.

`Cc1cc2c(NCCCc3ccccc3F)nc(C(F)(F)F)nc2s1` [Example 188, N-(3-(2-fluorophenyl)propyl)-6-methyl-2-(trifluoromethyl) thieno[2,3-d] pyrimidin-4-amine] gave a pIC50 of 5.29.

For `Cc1cc2c(NCCCc3ccccc3)nc(C(F)(F)F)nc2s1` [Example 166, 6-methyl-N-(3-phenylpropyl)-2-(trifluoromethyl) thieno[2,3-d] pyrimidin-4-amine], the pIC50 is > 6.29.

With `CCc1nc(NCCCc2cc(F)cc(C(F)(F)F)c2)c2cc(C)sc2n1` [Example 259, 2-ethyl-N-(3-(3-fluoro-5-(trifluoromethyl)phenyl)propyl)-6-methylthieno[2,3-d]pyrimidin-4-amine], the pIC50 was 6.25.

As for `Cc1cc2c(NCCCc3ccccc3)nc(OC(F)F)nc2s1` [Example 580, 2-(difluoromethoxy)-6-methyl-N-(3-phenylpropyl)thieno[2,3-d]pyrimidin-4-amine], the negative-log IC50 (pIC50) is < 5.00.

Molecule `Cc1cc2c(NCCCc3ccccc3)nc(N3CCCC3)nc2s1` [Example 516, 6-methyl-N-(3-phenylpropyl)-2-(pyrrolidin-1-yl)thieno[2,3-d]pyrimidin-4-amine] gave a negative-log IC50 (pIC50) of 6.96.

`CCCc1nc(N[C@@H]2C[C@H]2c2ccc(F)c(F)c2)c2cc(C)sc2n1` [Example 52, N-((1R,2S)-2-(3,4-difluorophenyl)cyclopropyl)-6-methyl-2-propylthieno[2,3-d]pyrimidin-4-amine] showed a pIC50 of 6.09.

On to `Fc1ccc(-c2nc(N[C@@H]3C[C@H]3c3ccc(F)c(F)c3)c3cc(C(F)(F)F)sc3n2)cc1` [Example 85, N-((1R,2S)-2-(3,4-difluorophenyl)cyclopropyl)-2-(4-fluorophenyl)-6-(trifluoromethyl)thieno [2,3-d]pyrimidin-4-amine], for which the pIC50 is < 5.17.

For the molecule `Cc1cc2c(NCCCc3ccc(-c4ccc(Cl)c(Cl)c4)cc3)nc(C(F)(F)F)nc2s1` [Example 290, N-(3-(3′,4′-dichloro-[1,1′-biphenyl]-4-yl)propyl)-6-methyl-2-(trifluoromethyl) thieno[2,3-d]pyrimidin-4-amine], the negative-log IC50 (pIC50) is 6.41.

In the case of `Cc1cc2c(N[C@@H]3C[C@H]3c3ccc(F)c(F)c3)nc(C#N)nc2s1` [Example 227, 4-(((1R,2S)-2-(3,4-difluorophenyl)cyclopropyl)amino)-6-methylthieno[2,3-d]pyrimidine-2-carbonitrile], the negative-log IC50 (pIC50) is 5.48.

In turn, `CCc1nc(NCCCc2ccc(O)cc2)c2cc(C)sc2n1` [Example 70, 4-(3-((2-ethyl-6-methylthieno[2,3-d]pyrimidin-4-yl)amino)propyl) phenol] showed a pIC50 of 6.64.

`CSc1nc(NCCCc2ccc(OC(F)(F)F)cc2)c2cc(C)sc2n1` [Example 124, 6-methyl-2-(methylthio)-N-(3-(4-(trifluoromethoxy)phenyl)propyl) thieno[2,3-d]pyrimidin-4-amine] showed a pIC50 of 7.21.

For the molecule `CSc1nc(NCCCOc2ccc(Cl)cc2)c2cc(C)sc2n1` [Example 71, N-(3-(4-chlorophenoxy)propyl)-6-methyl-2-(methylthio)thieno[2,3-d]pyrimidin-4-amine], the negative-log IC50 (pIC50) is 6.46.

As for `Cc1cc2c(NCCCc3ccccc3)nc(Sc3ccccc3)nc2s1` [Example 154, 6-methyl-N-(3-phenylpropyl)-2-(phenylthio)thieno[2,3-d]pyrimidin-4-amine], the pIC50 is < 5.00.

`CSc1nc(NCCCc2ccc(-c3ccc(Cl)cc3)cc2)c2cc(C)sc2n1` [Example 425, N-(3-(4′-chloro-[1,1′-biphenyl]-4-yl)propyl)-6-methyl-2-(methylthio)thieno[2,3-d]pyrimidin-4-amine] showed a negative-log IC50 (pIC50) of 7.77.

`Cc1cc2c(NCCCc3ccccc3)nc(SCc3ccccc3)nc2s1` [Example 142, 2-(benzylthio)-6-methyl-N-(3-phenylpropyl)thieno [2,3-d]pyrimidin-4-amine]: the negative logarithm of the IC50 (pIC50) is < 5.00.

For `c1ccc(CCCNc2nc(NC3CC3)nc3sccc23)cc1` [Example 505, N2-cyclopropyl-N4-(3-phenylpropyl)thieno[2,3-d]pyrimidine-2,4-diamine], the pIC50 was 5.04.

`Cc1cc2c(NCCCN3CCN(c4ccccc4)CC3)nc(-c3ccoc3)nc2s1` [Example 208, 2-(furan-3-yl)-6-methyl-N-(3-(4-phenylpiperazin-1-yl)propyl)thieno[2,3-d]pyrimidin-4-amine] showed a pIC50 of 5.49.

With `Cc1cc2c(NCCCc3ccc(OC(F)(F)F)cc3)nc(-c3ccc(F)cc3)nc2s1` [Example 82, 2-(4-fluorophenyl)-6-methyl-N-(3-(4-(trifluoromethoxy)phenyl)propyl)thieno[2,3-d]pyrimidin-4-amine], the pIC50 was 5.96. Against the preceding molecule, the pIC50 is 0.47 log units higher.

With `Cc1cc2c(NCCCc3ccc(-c4cnc(OC(C)C)cn4)cc3)nc(-c3ccoc3)nc2s1` [Example 392, 2-(furan-3-yl)-6-methyl-N-(3-(4-[5-(propan-2-yloxy)pyrazin-2-yl]phenyl)propyl)thieno[2,3-d]pyrimidin-4-amine], the pIC50 is 7.36.

Molecule `Cc1ccc(-c2ccc(CCCNc3nc(-c4ccoc4)nc4sc(C)cc34)cc2)s1` [Example 336, 2-(furan-3-yl)-6-methyl-N-(3-[4-(5-methylthiophen-2-yl)phenyl]propyl)thieno[2,3-d]pyrimidin-4-amine] had a negative-log IC50 (pIC50) of 7.82.

Take `CCc1nc(NCCCc2ccc(-c3ccc(NC(C)=O)cc3)cc2)c2cc(C)sc2n1` [Example 279, N-(4′-(3-((2-ethyl-6-methylthieno[2,3-d]pyrimidin-4-yl)amino)propyl)-[1,1′-biphenyl]-4-yl)acetamide]: the negative-log IC50 (pIC50) was 5.96.

Turning to `Cc1cc2c(NCCCc3ccc(-c4ccco4)cc3)nc(-c3ccoc3)nc2s1` [Example 337, N-(3-[4-(furan-2-yl)phenyl]propyl)-2-(furan-3-yl)-6-methylthieno[2,3-d]pyrimidin-4-amine], the pIC50 was 7.51.

In the case of `C#Cc1ccc(-c2ccc(CCCNc3nc(-c4ccoc4)nc4sc(C)cc34)cc2)cc1` [Example 333, N-(3-(4′-ethynyl-[1,1′-biphenyl]-4-yl)propyl)-2-(furan-3-yl)-6-methylthieno[2,3-d]pyrimidin-4-amine], the pIC50 was 7.92.

In the case of `CCc1nc(NCCc2cccnc2)c2cc(C)sc2n1` [Example 13, 2-ethyl-6-methyl-N-(2-(pyridin-3-yl)ethyl)thieno[2,3-d]pyrimidin-4-amine], the pIC50 was < 5.00.

`CCc1nc(NCCCc2ccc(OC)cc2)c2cc(C)sc2n1` [Example 18, 2-ethyl-N-(3-(4-methoxyphenyl)propyl)-6-methylthieno[2,3-d]pyrimidin-4-amine] gave a pIC50 of 7.22.
